{
  "source": "patent US9205091B2",
  "about": "“Diazeniumdiolated compounds, pharmaceutical compositions, and method of treating cancer” (The United States of America, as represented by the …, priority 2009, dated 2015)",
  "key": {"H2122/CRL5985": {"tested_on": "H2122/CRL5985", "experiment": "MTT proliferation assay, JS-K 48 h (Example 3)", "format": "cell-based, human", "details": "10 concentrations 50 nM to 50 μM", "procedure": "(§1) JS-K is synthesized as described previously (Saavedra et al., J. Org. Chem., 66: 3090-3098(2001)). Cell lines are obtained from the American Type Culture Collection (Manassas, Va.) and cultured according to the supplier's protocol. For proliferation assays cells are seeded at 2×10^4 per well in 96-well plates and allowed to adhere for 24 h. JS-K is prepared as 10 mM stock solution in DMSO. Increasing drug concentrations in 10 μL of PBS are added to 100 μL of the culture medium for 48 h. MTT assay (Promega, Madison, Wis.) is performed according to the manufacturer's protocol. Each concentration is represented in six repeats, and the screening is performed as at least two independent experiments. IC50 values are calculated using Sigma Plot software (Systat Software, Chicago, Ill.)."}, "H2023/CRL5912": {"tested_on": "H2023/CRL5912", "experiment": "MTT proliferation assay, JS-K 48 h (Example 3)", "format": "cell-based, human", "details": "10 concentrations 50 nM to 50 μM", "procedure": "as §1"}, "H1355/CRL5865": {"tested_on": "H1355/CRL5865", "experiment": "MTT proliferation assay, JS-K 48 h (Example 3)", "format": "cell-based, human", "details": "10 concentrations 50 nM to 50 μM", "procedure": "as §1"}, "H1373/CRL5866": {"tested_on": "H1373/CRL5866", "experiment": "MTT proliferation assay, JS-K 48 h (Example 3)", "format": "cell-based, human", "details": "10 concentrations 50 nM to 50 μM", "procedure": "as §1"}, "H1693/CRL5887": {"tested_on": "H1693/CRL5887", "experiment": "MTT proliferation assay, JS-K 48 h (Example 3)", "format": "cell-based, human", "details": "10 concentrations 50 nM to 50 μM", "procedure": "as §1"}, "H2030/CRL5914": {"tested_on": "H2030/CRL5914", "experiment": "MTT proliferation assay, JS-K 48 h (Example 3)", "format": "cell-based, human", "details": "10 concentrations 50 nM to 50 μM", "procedure": "as §1"}, "H441/HTB174": {"tested_on": "H441/HTB174", "experiment": "MTT proliferation assay, JS-K 48 h (Example 3)", "format": "cell-based, human", "details": "10 concentrations 50 nM to 50 μM", "procedure": "as §1"}, "H1568/CRL5876": {"tested_on": "H1568/CRL5876", "experiment": "MTT proliferation assay, JS-K 48 h (Example 3)", "format": "cell-based, human", "details": "10 concentrations 50 nM to 50 μM", "procedure": "as §1"}, "H1792/CRL5895": {"tested_on": "H1792/CRL5895", "experiment": "MTT proliferation assay, JS-K 48 h (Example 3)", "format": "cell-based, human", "details": "10 concentrations 50 nM to 50 μM", "procedure": "as §1"}, "H1734/CRL5891": {"tested_on": "H1734/CRL5891", "experiment": "MTT proliferation assay, JS-K 48 h (Example 3)", "format": "cell-based, human", "details": "10 concentrations 50 nM to 50 μM", "procedure": "as §1"}, "H322/CRL5806": {"tested_on": "H322/CRL5806", "experiment": "MTT proliferation assay, JS-K 48 h (Example 3)", "format": "cell-based, human", "details": "10 concentrations 50 nM to 50 μM", "procedure": "as §1"}, "H2126/CRL5925": {"tested_on": "H2126/CRL5925", "experiment": "MTT proliferation assay, JS-K 48 h (Example 3)", "format": "cell-based, human", "details": "10 concentrations 50 nM to 50 μM", "procedure": "as §1"}, "H838/CRL5844": {"tested_on": "H838/CRL5844", "experiment": "MTT proliferation assay, JS-K 48 h (Example 3)", "format": "cell-based, human", "details": "10 concentrations 50 nM to 50 μM", "procedure": "as §1"}, "H460/HTB177": {"tested_on": "H460/HTB177", "experiment": "MTT proliferation assay, JS-K 48 h (Example 3)", "format": "cell-based, human", "details": "10 concentrations 50 nM to 50 μM", "procedure": "as §1"}, "H1395/CRL5868": {"tested_on": "H1395/CRL5868", "experiment": "MTT proliferation assay, JS-K 48 h (Example 3)", "format": "cell-based, human", "details": "10 concentrations 50 nM to 50 μM", "procedure": "as §1"}, "H1944/CRL5907": {"tested_on": "H1944/CRL5907", "experiment": "MTT proliferation assay, JS-K 48 h (Example 3)", "format": "cell-based, human", "details": "10 concentrations 50 nM to 50 μM", "procedure": "as §1"}, "H1703/CRL5889": {"tested_on": "H1703/CRL5889", "experiment": "MTT proliferation assay, JS-K 48 h (Example 3)", "format": "cell-based, human", "details": "10 concentrations 50 nM to 50 μM", "procedure": "as §1"}, "A549/CCL185": {"tested_on": "A549/CCL185", "experiment": "MTT proliferation assay, JS-K 48 h (Example 3)", "format": "cell-based, human", "details": "10 concentrations 50 nM to 50 μM", "procedure": "as §1"}, "MnSOD": {"tested_on": "MnSOD", "experiment": "Anti-nitrotyrosine immunoprecipitation, anti-MnSOD immunoblot", "format": "cell-based, human", "details": "H1703 cells, 1 h", "procedure": "For immunoprecipitation, 300 μg of the cell lysate is incubated on the rotator overnight at 4° C. with 2 μg of anti-nitrotyrosine mAb and 30 μL of protein G agarose. After washing three times with lysis buffer, the beads are suspended in 30 μL of 2×NuPAGE (Invitrogen, Carlsbad, Calif.) loading buffer and heated for 10 min at 95° C. Immunoprecipitated material is resolved on SDS-PAGE followed by immunoblotting with anti-MnSOD antibody.\nWestern blot analysis is performed as previously described (Romanowska et al., Free Radical Biol. Med., 43:1145-1155 (2007)). Primary antibodies for caspases 3, 7, PARP and cleaved PARP, Bax, cytochrome c (Cell Signaling Technology, Danvers, Mass.), peroxiredoxins 1-6 (LabFrontier, Seoul, Korea), and nitrotyrosine and MnSOD (Millipore, Billerica, Mass.) are used."}, "[1]": {"tested_on": "IL-1β, IL-2, IL-4, IL-5, IL-10, IL-12t, IFNγ or TNFα", "experiment": "Serum cytokines, mouse Th1/2 multiplex assay", "format": "in vivo, mice", "details": "serum at termination; 6 μmol/kg i.v., three times a week for three weeks", "procedure": "H1944 or H1703 cells are injected at 5×10^6 s.c. into a flank of 7-week-old female athymic NCr-nu/nu mice (Charles River, Wilmington, Mass.). The drug injections are initiated when the tumors reached 2×2×2 mm (typically 3-4 weeks). JS-K is formulated in Pluronic P123 (P123) (BASF, Florham Park, N.J.) micelles. Animals are treated three times a week for three weeks with i.v. tail vein injections of either vehicle (2.25% P123 in PBS) or JS-K (6 μmol/kg in the vehicle). Tumors are measured using a caliper twice a week, and the tumor volumes are calculated using a formula for ellipsoid volume, π/6×L×W×H (Tomayko and Reynolds, 1989). The non-parametric Mann-Whitney test is utilized for statistical comparisons of tumor volumes at each time point. Body weights are taken before each drug injection. Animals are sacrificed 2 h after the last drug injection. Blood is collected by cardiac puncture under isoflurane anesthesia, for testing for cytokines. Cytokines in serum are measured using a mouse Th1/2 multiplex assay (Meso Scale Discovery, Gaithersburg, Md.), according to the manufacturer's protocol. There were 9-13 mice/group at termination."}, "H1944 cells": {"tested_on": "H1944 cells", "experiment": "Total glutathione / GSSG content after JS-K treatment", "format": "cell-based, human", "details": "JS-K 10 μM, 1 h", "procedure": "(§2) H1703 or H1944 cells are plated in 6-well plates at 6×10^5 per well. Cells are treated with JS-K for 1 h at 1 μM (H1703) or 10 μM (H1944). After treatment, cells are washed with PBS, scraped into PBS and collected by centrifugation at 800 g for 10 min. The pellets are resuspended in 80 μL of 10 mM HCl and lysed by two successive rounds of freeze and thawing. Twenty μL of a 5% 5-sulfosalicylic acid solution is added to the lysate. The precipitate is removed by centrifugation at 8,000 g for 10 min, and the supernatant is analyzed for total glutathione content using total glutathione quantification kit (Dojindo, Rockville, Md.) according to the manufacturer's protocol. To measure GSSG concentration, cells are treated and lysed in accordance with the procedure above. The lysate is then neutralized with 0.1 M NaOH and treated with 4-vinylpyridine at a final concentration of 50 mM for 30 min."}, "H1703 cells": {"tested_on": "H1703 cells", "experiment": "Total glutathione / GSSG content after JS-K treatment", "format": "cell-based, human", "details": "JS-K 1 μM, 1 h", "procedure": "as §2"}, "NSCLC cell lines": {"tested_on": "NSCLC cell lines", "experiment": "MTT proliferation assay, JS-K, NSCLC panel summary", "format": "cell-based, human", "details": "six cell lines; read-out: IC50 range of the sensitive cell lines", "procedure": "as §1"}},
  "note": "pIC50: −log10 of the molar value.",
  "data": [
    {"smiles": "CCOC(=O)N1CCN(/[N+]([O-])=N/Oc2ccc([N+](=O)[O-])cc2[N+](=O)[O-])CC1", "note": "[Compound 1]", "values": [
      {"measurement": "pIC50", "setting": "H2122/CRL5985", "result": 5.22},
      {"measurement": "pIC50", "setting": "H2023/CRL5912", "result": 4.94},
      {"measurement": "pIC50", "setting": "H1355/CRL5865", "result": 5.10},
      {"measurement": "pIC50", "setting": "H1373/CRL5866", "result": 6.01},
      {"measurement": "pIC50", "setting": "H1693/CRL5887", "result": 6.48},
      {"measurement": "pIC50", "setting": "H2030/CRL5914", "result": 4.83},
      {"measurement": "pIC50", "setting": "H441/HTB174", "result": 6.00},
      {"measurement": "pIC50", "setting": "H1568/CRL5876", "result": 6.40},
      {"measurement": "pIC50", "setting": "H1792/CRL5895", "result": 5.04},
      {"measurement": "pIC50", "setting": "H1734/CRL5891", "result": 6.44},
      {"measurement": "pIC50", "setting": "H322/CRL5806", "result": 5.06},
      {"measurement": "pIC50", "setting": "H2126/CRL5925", "result": 5.38},
      {"measurement": "pIC50", "setting": "H838/CRL5844", "result": 5.23},
      {"measurement": "pIC50", "setting": "H460/HTB177", "result": 5.12},
      {"measurement": "pIC50", "setting": "H1395/CRL5868", "result": 5.50},
      {"measurement": "pIC50", "setting": "H1944/CRL5907", "result": 4.75},
      {"measurement": "pIC50", "setting": "H1703/CRL5889", "result": 6.40},
      {"measurement": "pIC50", "setting": "A549/CCL185", "result": 5.12},
      {"measurement": "nitrotyrosine level in MnSOD", "setting": "MnSOD", "result": "increase"},
      {"measurement": "serum cytokine levels, treated vs control groups", "setting": "[1]", "result": "no significant differences"},
      {"measurement": "GSH μmol/mg protein", "setting": "H1944 cells", "result": 0.13, "unit": "μmol/mg protein"},
      {"measurement": "GSSG μmol/mg protein", "setting": "H1944 cells", "result": 0.014, "unit": "μmol/mg protein"},
      {"measurement": "GSH μmol/mg protein", "setting": "H1703 cells", "result": 1.27, "unit": "μmol/mg protein"},
      {"measurement": "GSSG μmol/mg protein", "setting": "H1703 cells", "result": 0.042, "unit": "μmol/mg protein"},
      {"measurement": "pIC50", "setting": "NSCLC cell lines", "result": "6.00 to 6.48"}
    ]}
  ]
}
